Results on 14 molecules are retold here after PubChem BioAssay (NCI).

Among the test systems are COLO 205 colon; MALME-3M melanoma; HCC-2998 colon; MOLT-4 leukemia; RPMI-8226 leukemia; UO-31 renal; CCRF-CEM leukemia; IGROV1 ovarian; NCI/ADR-RES ovarian; HOP-92 NSCLC; UACC-62 melanoma.
Holding throughout (assay): growth of human tumour cells (NCI), 48 h

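Briefly, cells in 96-well plates were exposed to five compound concentrations for 48 h, and endpoints were estimated by linear interpolation. GI50 marks 50% less growth. At the TGI there is no net growth.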

Take `O=C1c2cc3c(cc2-c2c1c1cc(F)c(F)cc1c(=O)n2CCCn1ccnc1)OCO3`: the GI50 was 0.0293 µM in the assay on COLO 205 colon; 0.0856 µM with MALME-3M melanoma; 0.195 µM in the assay on HCC-2998 colon; less than 0.01 µM in the assay with MOLT-4 leukemia; 0.0253 µM in the assay on RPMI-8226 leukemia; 0.0465 µM in the assay with UO-31 renal. Besides, the GI50 in the assay with CCRF-CEM leukemia is less than 0.01 µM; in the assay with IGROV1 ovarian, 0.14 µM. The TGI in the assay with COLO 205 colon is 1.62 µM; in the assay on MALME-3M melanoma, 1.21 µM; in the assay with HCC-2998 colon, more than 100 µM; in the assay with MOLT-4 leukemia, 1.24 µM; in the assay with RPMI-8226 leukemia it was 0.673 µM; in the assay with UO-31 renal, 0.814 µM. Further, the TGI in the assay with CCRF-CEM leukemia and with IGROV1 ovarian was more than 100 µM throughout.

As for `c1cnc2c(c1)-n1cccc1C1(CCCCC1)NN2`, the TGI with COLO 205 colon was more than 100 µM; in the assay with MALME-3M melanoma it was more than 100 µM; in the assay with HCC-2998 colon, more than 100 µM; in the assay with MOLT-4 leukemia, more than 100 µM; in the assay on RPMI-8226 leukemia, more than 100 µM; in the assay on UO-31 renal, 79.9 µM. The molecule further gave a TGI in the assay with CCRF-CEM leukemia of more than 100 µM.

`CC(Nc1ccc(Cl)cc1)c1ccncc1` (stereo not drawn): the TGI in the assay on NCI/ADR-RES ovarian is more than 100 µM; in the assay with COLO 205 colon it was more than 100 µM; in the assay on MALME-3M melanoma, more than 100 µM; with HCC-2998 colon it was more than 100 µM; with MOLT-4 leukemia, more than 100 µM; in the assay on RPMI-8226 leukemia, 98.3 µM. In addition, the TGI in the assay on UO-31 renal, in the assay on CCRF-CEM leukemia and in the assay with IGROV1 ovarian was more than 100 µM throughout.

As to `C/C(=C1\N=C(c2ccccc2)OC1=O)c1ccccc1`, the TGI in the assay with HOP-92 NSCLC, in the assay on COLO 205 colon, in the assay with MALME-3M melanoma, in the assay with HCC-2998 colon, in the assay on UACC-62 melanoma and in the assay with MOLT-4 leukemia was more than 100 µM in each case. Also, the TGI with RPMI-8226 leukemia, with UO-31 renal, in the assay with CCRF-CEM leukemia and with IGROV1 ovarian was more than 100 µM throughout.

Turning to `N[C@@H](CCC(=O)NC(Cc1ccccc1)C(=O)NCP(=O)(O)O)C(=O)O` (stereo partly drawn), the TGI in the assay on NCI/ADR-RES ovarian, with COLO 205 colon, in the assay with MALME-3M melanoma, in the assay on HCC-2998 colon, in the assay with UACC-62 melanoma and in the assay on MOLT-4 leukemia was more than 100 µM each time. Moreover, the TGI in the assay with RPMI-8226 leukemia, in the assay on UO-31 renal and in the assay on IGROV1 ovarian was more than 100 µM in each case.

For the molecule `NC(=O)CCC(N=c1c2ccccc2n(O)c2ccccc12)C(=O)O` (stereo not drawn), the TGI with COLO 205 colon was more than 100 µM; with MALME-3M melanoma, more than 100 µM; in the assay with HCC-2998 colon, more than 100 µM; in the assay on UACC-62 melanoma it was more than 100 µM; with MOLT-4 leukemia, more than 100 µM; in the assay on RPMI-8226 leukemia, 97.3 µM. Further, the TGI with UO-31 renal, with CCRF-CEM leukemia and with IGROV1 ovarian was more than 100 µM in each case.

For the molecule `CCc1nc(N)c2nc(-c3cccs3)oc2n1`, the TGI with NCI/ADR-RES ovarian, with HOP-92 NSCLC, in the assay on COLO 205 colon, with HCC-2998 colon, with UACC-62 melanoma and with MOLT-4 leukemia was more than 100 µM each time. For the same molecule, the TGI in the assay on RPMI-8226 leukemia, in the assay with UO-31 renal, in the assay with CCRF-CEM leukemia and in the assay on IGROV1 ovarian was more than 100 µM in each case.

For the molecule `C=C1CCC[C@@H](C)C(O)[C@@H]2OC(=O)C(=C)[C@@H]2C[C@@H](OC(C)=O)[C@@]2(C)CC[C@@H]1O2` (stereo partly drawn), the TGI came to 19.3 µM with NCI/ADR-RES ovarian; 15 µM in the assay with HOP-92 NSCLC; 13.4 µM in the assay with COLO 205 colon; 14.9 µM with HCC-2998 colon; 11.7 µM in the assay with UACC-62 melanoma; 15.4 µM in the assay on MOLT-4 leukemia. The TGI was more than 50 µM with RPMI-8226 leukemia, 15.3 µM with UO-31 renal, 6.8 µM in the assay on CCRF-CEM leukemia and 15.4 µM with IGROV1 ovarian.

With `O=P1(N(CCCl)CCCl)Oc2ccc(Cl)cc2C(C(Cl)(Cl)Cl)c2cc(Cl)ccc2O1` (stereo not drawn), the TGI in the assay with NCI/ADR-RES ovarian was more than 100 µM; in the assay on HOP-92 NSCLC, 40.4 µM; in the assay on COLO 205 colon it was 26.5 µM; in the assay with HCC-2998 colon, 34.3 µM; in the assay on UACC-62 melanoma, 26.7 µM; in the assay on MOLT-4 leukemia, more than 100 µM. The TGI in the assay on RPMI-8226 leukemia, in the assay on UO-31 renal and with CCRF-CEM leukemia was more than 100 µM throughout.

On to `CCOP(=O)(/C=C/n1cc(C)c(=O)[nH]c1=O)OCC`, for which the TGI in the assay with NCI/ADR-RES ovarian, in the assay on COLO 205 colon, in the assay on UACC-62 melanoma, in the assay on MOLT-4 leukemia, in the assay on RPMI-8226 leukemia and with CCRF-CEM leukemia was more than 100 µM each time. Besides, in the assay on IGROV1 ovarian, the TGI was more than 100 µM.

Take `O=C1/C(=C/c2ccccc2)Oc2cc(O)ccc21`: the TGI with NCI/ADR-RES ovarian, in the assay with COLO 205 colon, with HCC-2998 colon, in the assay with UACC-62 melanoma, with MOLT-4 leukemia and in the assay on RPMI-8226 leukemia was more than 100 µM in each case. Besides, the TGI in the assay on UO-31 renal, with CCRF-CEM leukemia and in the assay on IGROV1 ovarian was more than 100 µM each time.

Take `N#Cc1ccccc1NC(=O)C(=O)C(C(=O)c1ccccc1F)C1OC(=O)c2ccccc21` (stereo not drawn): the TGI was more than 100 µM in the assay on HOP-92 NSCLC; more than 100 µM in the assay on COLO 205 colon; 53.4 µM in the assay with HCC-2998 colon; more than 100 µM in the assay with UACC-62 melanoma; more than 100 µM with MOLT-4 leukemia; 76.7 µM in the assay with RPMI-8226 leukemia. For the same molecule, the values for the TGI in the assay on UO-31 renal, in the assay on CCRF-CEM leukemia and in the assay with IGROV1 ovarian were more than 100 µM, 37.9 µM and more than 100 µM, respectively.

Take `Nc1c(C(=O)c2ccc(Cl)c(Cl)c2)[nH]c(NCc2ccccc2)c1C(=S)Nc1ccccc1`: the TGI was 4.72 µM in the assay with NCI/ADR-RES ovarian; 3.79 µM with COLO 205 colon; 11.7 µM in the assay on MALME-3M melanoma; 3.48 µM in the assay with HCC-2998 colon; 29.2 µM in the assay with UACC-62 melanoma; more than 100 µM with MOLT-4 leukemia. In addition, the TGI worked out at 6.03 µM in the assay with RPMI-8226 leukemia, 21.6 µM in the assay on UO-31 renal and 26.5 µM in the assay on IGROV1 ovarian.

In the case of `Cn1c(=O)c2c(nc3[nH]c(=O)c(Br)cn32)n(C)c1=O`, the TGI in the assay with NCI/ADR-RES ovarian, with HOP-92 NSCLC, in the assay on COLO 205 colon, with HCC-2998 colon, in the assay on UACC-62 melanoma and in the assay with MOLT-4 leukemia was more than 100 µM in each case. In addition, the TGI in the assay on RPMI-8226 leukemia, in the assay with UO-31 renal, in the assay with CCRF-CEM leukemia and in the assay with IGROV1 ovarian was more than 100 µM in each case.
